Laboratory results published in patent US6417187B2, “1,2,4-triazole based compounds that can be used as insecticides or acaricides and processes” (Dow AgroSciences LLC, priority 2000, dated 2002).

What was measured:
Type in all cases: in vivo
[1] = system: cabbage looper (Trichoplusia ni); test: Insecticidal test for cabbage looper (cabbage leaf-disc dip); details: 400 ppm, cabbage leaf-dip, 2nd instar larvae, 5 days
[2] = system: Brown Planthopper (Nilaparvata lugens); test: Insecticidal test for Brown Planthopper (rice seedling roots in test solution)
[3] = system: cotton aphid (Aphis gossvpii); test: Insecticidal test for cotton aphid (squash cotyledon spray); details: for pest or weed control at 50 ppm: 72 h, read-out: CA: activity at 50 ppm against cotton aphid (% Control rating)
[4] = system: Green Leafhopper (Nephotettix cincticeps); test: Insecticidal test for Green Leafhopper (rice seedling roots in test solution)
[5] = system: Sweetpotato Whitefly (Bemisia tabacia); test: Insecticidal test for Sweetpotato Whitefly (cotton plant spray); details: 200 ppm spray on cotton plants, 13 days, reduction of large nymphs; for pest or weed control at 200 ppm: Bemisia, 312 h, read-out: WF: activity at 200 ppm against whitefly (% Control rating)
[6] = system: beet armyworm (Spodoptera exigua); test: Insecticidal test for beet armyworm (treated lepidopteran diet); details: 400 ppm, treated diet, second-instar larvae, 5 days
[7] = 10 ppm test solution, rice seedling roots, 3rd instar nymphs, mortality at 6 days
[8] = 50 ppm spray on infested squash cotyledons, 3 days, population reduction versus untreated

Row | Structure (SMILES) | BPH: activity at 10 ppm against brown planthopper (% Control rating) [2, 7] | GLH: activity at 10 ppm against green leafbopper (% Control rating) [4, 7] | CA: activity at 50 ppm against cotton aphid (% Control rating) [3, 8] | WF: activity at 200 ppm against whitefly (% Control rating) [5] | also measured
1 | C#Cc1sc(-c2nc(-c3c(F)cccc3Cl)nn2C)c(Cl)c1Cl [Compound 2, 1-Methyl-3-(2-chloro-6-fluorophenyl)-5-(3,4-dichloro-5-ethynvl-thien-2-yl)[1,2,4]triazole] | D (60-69) | F (less than 50) | – | – | pest or weed control at 400 ppm ([1]; Trichoplusia ni, 120 h, read-out: CL: activity at 400 ppm against cabbage looper (% Control rating)): < 50%; pest or weed control at 50 ppm [3, 8]: 60 to 69%
2 | CCC#Cc1sc(-c2nc(-c3c(F)cccc3Cl)nn2C)c(Cl)c1Cl [Compound 5] | F (less than 50) | F (less than 50) | – | – | pest or weed control at 200 ppm [5]: < 50%; pest or weed control at 50 ppm [3, 8]: 80 to 89%
3 | Cc1ccncc1C#Cc1sc(-c2nc(-c3c(F)cccc3Cl)nn2C)c(Cl)c1Cl [Compound 21] | F (less than 50) | – | F (less than 50) | – | –
4 | Cn1nc(-c2c(F)cccc2Cl)nc1-c1sc(C#Cc2cc(Cl)c(OCC(F)(F)F)c(Cl)c2)c(Cl)c1Cl [Compound 22] | F (less than 50) | F (less than 50) | F (less than 50) | D (60-69) | –
5 | Cn1nc(-c2c(F)cccc2Cl)nc1-c1sc(C#Cc2ccccn2)c(Cl)c1Cl [Compound 33] | F (less than 50) | F (less than 50) | F (less than 50) | D (60-69) | –
6 | Cc1ccsc1C#Cc1sc(-c2nc(-c3c(F)cccc3Cl)nn2C)c(Cl)c1Cl [Compound 36] | D (60-69) | D (60-69) | E (50-59) | F (less than 50) | CL: activity at 400 ppm against cabbage looper (% Control rating) [1]: A (90-100)
7 | C=C(C)C#Cc1sc(-c2nc(-c3c(F)cccc3Cl)nn2C)c(Cl)c1Cl [Compound 38] | – | – | D (60-69) | F (less than 50) | –
8 | CC=CC#Cc1sc(-c2nc(-c3c(F)cccc3Cl)nn2C)c(Cl)c1Cl [Compound 39] | – | – | – | – | BPH: activity at 10 ppm against brown planthopper (% Control rating) ([2]; in vivo): F (key: A: 90-100; B: 80-89; C: 70-79; D: 60-69; E: 50-59; F: less than 50; G: inactive); CA: activity at 50 ppm against cotton aphid (% Control rating) ([3]; in vivo): B (key: A: 90-100; B: 80-89; C: 70-79; D: 60-69; E: 50-59; F: less than 50; G: inactive); GLH: activity at 10 ppm against green leafbopper (% Control rating) ([4]; in vivo): F (key: A: 90-100; B: 80-89; C: 70-79; D: 60-69; E: 50-59; F: less than 50; G: inactive)
9 | Cc1ccnc(C#Cc2sc(-c3nc(-c4c(F)cccc4Cl)nn3C)c(Cl)c2Cl)c1 [Compound 43] | – | F (less than 50) | F (less than 50) | F (less than 50) | –
10 | Cc1cccc(C#Cc2sc(-c3nc(-c4c(F)cccc4Cl)nn3C)c(Cl)c2Cl)n1 [Compound 44] | – | – | F (less than 50) | F (less than 50) | –
11 | Cc1cccnc1C#Cc1sc(-c2nc(-c3c(F)cccc3Cl)nn2C)c(Cl)c1Cl [Compound 45] | F (less than 50) | F (less than 50) | F (less than 50) | F (less than 50) | –
12 | Cc1cc(C#Cc2sc(-c3nc(-c4c(F)cccc4Cl)nn3C)c(Cl)c2Cl)ccn1 [Compound 57] | – | F (less than 50) | – | F (less than 50) | –
13 | Cc1ccc(C#Cc2sc(-c3nc(-c4c(F)cccc4Cl)nn3C)c(Cl)c2Cl)nc1 [Compound 58] | F (less than 50) | F (less than 50) | F (less than 50) | F (less than 50) | –
14 | Cn1nc(-c2c(F)cccc2Cl)nc1-c1sc(C#Cc2ccc(Br)cc2OC(F)(F)F)c(Cl)c1Cl [Compound 59] | F (less than 50) | F (less than 50) | F (less than 50) | F (less than 50) | –
15 | Cn1nc(-c2c(F)cccc2Cl)nc1-c1sc(C#Cc2ccc(Cl)cn2)c(Cl)c1Cl [Compound 61] | F (less than 50) | F (less than 50) | F (less than 50) | F (less than 50) | –
16 | Cn1nc(-c2c(F)cccc2Cl)nc1-c1sc(C#Cc2ccc(C(F)(F)F)cn2)c(Cl)c1Cl [Compound 62] | F (less than 50) | F (less than 50) | F (less than 50) | F (less than 50) | –
17 | Cn1nc(-c2c(F)cccc2Cl)nc1-c1sc(C#Cc2cnc(N3CCOCC3)nc2)c(Cl)c1Cl [Compound 63] | – | – | – | F (less than 50) | BAW: activity at 400 ppm against beet armyworm (% Control rating) [6]: D (60-69); CL: activity at 400 ppm against cabbage looper (% Control rating) [1]: A (90-100)
18 | CCOc1ccc(C#Cc2ccc(-c3nc(-c4c(F)cccc4Cl)nn3C)s2)cc1 [Compound 66] | – | F (less than 50) | B (80-89) | F (less than 50) | –
19 | Cn1nc(-c2c(F)cccc2Cl)nc1-c1ccc(C#Cc2ccccc2)s1 [Compound 68] | F (less than 50) | F (less than 50) | A (90-100) | F (less than 50) | –
20 | Cn1nc(-c2c(F)cccc2Cl)nc1-c1ccc(C#Cc2ccccc2F)s1 [Compound 69] | – | F (less than 50) | E (50-59) | F (less than 50) | –
21 | Cn1nc(-c2c(F)cccc2Cl)nc1-c1ccc(C#Cc2ccccc2)cc1 [Compound 70] | – | – | C (70-79) | F (less than 50) | –
22 | CCCc1ccc(C#Cc2ccc(-c3nc(-c4c(F)cccc4Cl)nn3C)cc2)cc1 [Compound 71] | F (less than 50) | – | A (90-100) | F (less than 50) | –
23 | CCCc1ccc(C#Cc2sc(-c3nc(C)nn3C)c(Cl)c2Cl)cc1 [Compound 75] | C (70-79) | F (less than 50) | F (less than 50) | F (less than 50) | –
24 | CCCc1ccc(C#Cc2sc(-c3nc(-c4ccccc4F)nn3C)c(Cl)c2Cl)cc1 [Compound 76] | F (less than 50) | F (less than 50) | – | F (less than 50) | BAW: activity at 400 ppm against beet armyworm (% Control rating) [6]: A (90-100)
25 | Cc1nc(-c2sc(C#Cc3ccc(F)cc3)c(Cl)c2Cl)n(C)n1 [Compound 78] | F (less than 50) | F (less than 50) | – | – | pest or weed control at 400 ppm ([6]; Spodoptera exigua, 120 h, read-out: BAW: activity at 400 ppm against beet armyworm (% Control rating)): 90 to 100%; pest or weed control at 200 ppm [5]: 60 to 69%; pest or weed control at 50 ppm [3, 8]: < 50%
26 | Cn1nc(-c2ccccc2F)nc1-c1sc(C#Cc2ccc(F)cc2)c(Cl)c1Cl [Compound 79] | F (less than 50) | F (less than 50) | F (less than 50) | D (60-69) | –
27 | CCCc1ccc(C#Cc2sc(-c3nc(-c4c(F)cccc4Cl)n[nH]3)c(Cl)c2Cl)cc1 [Compound 80] | – | – | – | F (less than 50) | –
28 | COc1ccc(C#Cc2ccc(-c3nc(-c4c(Cl)cncc4Cl)nn3C)cc2)cc1 [Compound 88] | – | F (less than 50) | D (60-69) | F (less than 50) | –
29 | COc1ccc(C#Cc2cccc(-c3nc(-c4c(Cl)cncc4Cl)nn3C)c2)cc1 [Compound 89] | – | F (less than 50) | B (80-89) | F (less than 50) | –
30 | C#Cc1ccc(-c2nc(-c3c(F)cccc3Cl)nn2C)c(Cl)c1Cl [Compound 97] | – | – | – | – | pest or weed control at 200 ppm [5]: < 50%; pest or weed control at 50 ppm [3, 8]: 80 to 89%
